The results in this text go back to patent US20260048068A1, “PHENYLUREA DERIVATIVES AND THEIR PHARMACEUTICAL USES” (HANGZHOU BIO-SINCERITY PHARMA-TECH CO., LTD., priority 2022, published 2026).

Series [1] addresses histamine H3 receptor (Homo sapiens, UniProt Q9Y5N1). Briefly: FLPPR assay, antagonistic activity at histamine H3 receptor. It counts as cell-based. The following applies: for inhibition at 0.005 µM: 5 nM compound, read-out: % Inh-AVERAGE @ 5 nM; for inhibition at 0.05 µM: 50 nM compound, read-out: % Inh-AVERAGE @ 50 nM. As for the experimental part:
The FLPPR assay (NIH Assay Guidance Manual: HTS Assay Validation-Section 4.3. Analysis (Potency), htpps://www.ncbi.nlm.nih.gov/books/NBK83783) was performed using SUVN-G3031 as the positive control, and 13 target compounds were tested for the antagonistic activity target to histamine H3 receptor.

Series [2] addresses hERG channel (Homo sapiens, UniProt Q12809). Briefly: in vitro. The text has this: In cardiomyocytes, inhibition of the delayed rectifier potassium current (IKr) channel protein encoded by the human Ether-a-go-go Related Gene (hERG) is the most importane mechanism by which drugs lead to prolongation of the QT interval. hERG is characterized by a specific molecular structure, which allows it to be inhibited by different structures, leading to severe arrhythmias. Statistically, 25-40% of lead compounds show varying degrees of hERG-related toxicity. early evaluation of the effects of compounds on hERG is crucial in the drug development process. The inhibition rate of compounds on hERG channels is examined by manual membrane clamp technique on HEK293 cell line whichi stably ecpressing hERG ion channels.

The test system of series [3] is CCI model rats. Briefly: Chronic constriction injury (CCI) neuropathic pain model, mechanical withdrawal threshold. It is filed as in vivo. The following applies: CCI SD rats; for Mechanical pain (withdrawal) threshold vs model group: single dose, 0.5-6 h. The text has this:
Exposing the sciatic nerve on male SD rats' (180-200 g) right hind leg, in the anterior segment where the sciatic nerve is about to bifurcate, use sterile chromic gut thread (No. 4, 0.15 mm in diameter) to ligate 4 loops loosely, with each loop 1-2 mm apart, and suture the muscle and skin to establish the chronic constriction injury (CCI) model. In the sham-operated group, only the sciatic nerve is exposed without ligation, and the muscle and skin are sutured. The mechanical withdrawal threshold is detected by electronic analgesia meter (IITC-2391) on the 7th day for 2 consecutive days.
The CCI model rats with stabilized mechanical withdrawal thresholds were randomly divided into three groups, named model group (model), pregabalin group (Pre, 30 mg/kg), BIOS-A-3 compound group (1 mg/kg), and were administered at 1 mL/100 g by gavage, and the same column of saline was gavaged in Sham and model group. The basic value was determined before drug administration, and the mechanical withdrawal thresholds were detected at 0.5 h, 1 h, 2 h, 4 h and 6 h after a single drug administration, and the p value was calculated by ANOVA with T-test.

[4] abbreviates: Average inhibition rate (%) on hERG channel.
Setting [5] is: Inhibition rate on hERG channel.

histamine H3 receptor, sequence (Q9Y5N1 whole entry, species assumed): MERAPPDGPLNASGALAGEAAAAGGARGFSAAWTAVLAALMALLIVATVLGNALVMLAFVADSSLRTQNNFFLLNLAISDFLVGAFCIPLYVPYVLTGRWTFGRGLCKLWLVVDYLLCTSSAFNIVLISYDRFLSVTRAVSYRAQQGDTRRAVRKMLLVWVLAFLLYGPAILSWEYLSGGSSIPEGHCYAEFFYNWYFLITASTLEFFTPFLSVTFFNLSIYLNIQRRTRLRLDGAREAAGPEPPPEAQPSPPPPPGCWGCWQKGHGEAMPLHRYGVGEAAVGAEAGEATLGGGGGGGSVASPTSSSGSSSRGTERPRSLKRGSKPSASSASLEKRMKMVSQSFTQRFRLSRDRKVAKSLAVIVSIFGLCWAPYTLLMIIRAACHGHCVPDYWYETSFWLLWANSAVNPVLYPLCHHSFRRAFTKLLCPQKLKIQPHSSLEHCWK
hERG channel, sequence (Q12809 whole entry): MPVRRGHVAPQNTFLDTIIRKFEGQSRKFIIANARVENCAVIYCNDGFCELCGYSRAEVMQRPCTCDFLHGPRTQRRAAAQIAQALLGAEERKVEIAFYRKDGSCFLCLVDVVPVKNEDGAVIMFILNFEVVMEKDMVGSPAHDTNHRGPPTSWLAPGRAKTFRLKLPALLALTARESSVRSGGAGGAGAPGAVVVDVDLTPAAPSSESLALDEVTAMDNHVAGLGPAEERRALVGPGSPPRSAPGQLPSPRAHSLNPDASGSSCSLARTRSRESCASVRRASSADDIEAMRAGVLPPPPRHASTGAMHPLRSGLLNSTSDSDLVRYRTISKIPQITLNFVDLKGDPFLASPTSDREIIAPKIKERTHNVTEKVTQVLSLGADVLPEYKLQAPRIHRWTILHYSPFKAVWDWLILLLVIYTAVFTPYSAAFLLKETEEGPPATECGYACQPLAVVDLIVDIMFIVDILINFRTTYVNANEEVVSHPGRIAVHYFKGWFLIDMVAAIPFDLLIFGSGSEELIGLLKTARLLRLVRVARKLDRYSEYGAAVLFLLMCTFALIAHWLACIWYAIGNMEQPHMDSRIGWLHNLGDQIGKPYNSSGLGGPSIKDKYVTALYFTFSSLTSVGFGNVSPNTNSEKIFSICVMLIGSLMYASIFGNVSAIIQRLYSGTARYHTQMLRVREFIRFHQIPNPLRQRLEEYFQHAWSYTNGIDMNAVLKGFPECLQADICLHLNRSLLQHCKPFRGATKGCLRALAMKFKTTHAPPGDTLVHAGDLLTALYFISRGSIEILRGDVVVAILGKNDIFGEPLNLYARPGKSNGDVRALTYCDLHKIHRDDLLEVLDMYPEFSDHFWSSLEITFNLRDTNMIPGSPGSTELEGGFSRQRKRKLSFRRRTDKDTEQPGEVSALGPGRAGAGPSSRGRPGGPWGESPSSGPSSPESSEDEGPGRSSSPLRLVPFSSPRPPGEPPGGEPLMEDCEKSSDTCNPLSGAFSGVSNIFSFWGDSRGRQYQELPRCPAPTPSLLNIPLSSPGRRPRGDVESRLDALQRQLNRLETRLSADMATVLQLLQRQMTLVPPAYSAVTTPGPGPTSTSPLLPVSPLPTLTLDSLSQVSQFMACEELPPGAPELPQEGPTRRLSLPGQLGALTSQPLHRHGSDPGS

As for `O=C(Nc1ccc(OC2CCN(C3CCC3)CC2)cc1)NC1CCCC1` [BIOS-A-1, 1-(4-((1-cyclobutylpiperidin-4-yl)oxy)phenyl)-3-cyclopentylurea], in series [1], the inhibition at 0.005 µM came to 77.4% and the inhibition at 0.05 µM was 99.7%.

With `O=C(NCCN1CCC(F)(F)CC1)Nc1ccc(OC2CCN(C3CCC3)CC2)cc1` [BIOS-A-7, 1-(4-((1-cyclobutylpiperidin-4-yl)oxy)phenyl)-3-(2-(4,4-difluoropiperidin-1-yl)ethyl)urea], in series [1], the inhibition at 0.005 µM was determined as 101% and the inhibition at 0.05 µM amounted to 100%.

On to `O=C(NCCN1CCCC1)Nc1ccc(OC2CCN(C3CCC3)CC2)cc1` [BIOS-A-5, 1-(4-((1-cyclobutylpiperidin-4-yl)oxy)phenyl)-3-(2-(pyrrolidin-1-yl)ethyl)urea], for which, in series [2] (setting [4]), the inhibition at 10 µM is 2.64%. In series [1], the inhibition at 0.005 µM stood at 101% and the inhibition at 0.05 µM was determined as 99.7%.

For `CC(C)C[C@H](CN)CC(=O)O` [Pregabalin, reference compound], in series [3] (30 mg/kg by gavage), the “Mechanical pain (withdrawal) threshold vs model group” value is “only increased the mechanical sting threshold of CCI rats at 0.5 h and 1 h after administration”.

On to `O=C(NCCN1CCOCC1)Nc1ccc(OC2CCN(C3CCC3)CC2)cc1` [BIOS-A-3, 1-(4-((1-cyclobutylpiperidin-4-yl)oxy)phenyl)-3-(2-morpholinoethyl)urea], for which the inhibition at 10 µM in series [2] (setting [4]) amounted to 1.56%. Moreover, in series [1], the inhibition at 0.005 µM amounted to 95.6% and the inhibition at 0.05 µM is 100%. Besides, the “Mechanical pain (withdrawal) threshold vs model group” value in series [3] (1 mg/kg by gavage) is listed as “significantly increased the mechanical tingling threshold of CCI model rats”. Moreover, the “Acting time compared with pregabalin” value in series [3] (1 mg/kg vs pregabalin 30 mg/kg) is “had a longer acting time”.

For `O=C(NCCN1CCSCC1)Nc1ccc(OC2CCN(C3CCC3)CC2)cc1` [BIOS-A-8, 1-(4-((1-cyclobutylpiperidin-4-yl)oxy)phenyl)-3-(2-thiomorpholinoethyl)urea], in series [1], the inhibition at 0.005 µM is 100% and the inhibition at 0.05 µM was 100%.

With `O=C(NCCN1CCCCC1)Nc1ccc(OC2CCN(C3CCC3)CC2)cc1` [BIOS-A-4, 1-(4-((1-cyclobutylpiperidin-4-yl)oxy)phenyl)-3-(2-(piperidin-1-yl)ethyl)urea], in series [2] (setting [4]), the inhibition at 10 µM was 0.96%. Further, in series [1], the inhibition at 0.005 µM worked out at 102% and the inhibition at 0.05 µM is 98.6%.

Consider `O=C(NCCN1CCN(C2CCC2)CC1)Nc1ccc(OC2CCN(C3CCC3)CC2)cc1` [BIOS-A-15, 1-(2-(4-cyclobutylpiperazin-1-yl)ethyl)-3-(4-((1-cyclobutylpiperidin-4-yl)oxy)phenyl)urea], for which the inhibition at 10 µM in series [2] (setting [4]) was -0.55%. In series [1], the inhibition at 0.005 µM worked out at 101% and the inhibition at 0.05 µM came out at 99.9%.

`O=C(NCCN1CCC(O)CC1)Nc1ccc(OC2CCN(C3CCC3)CC2)cc1` [BIOS-A-9, 1-(4-((1-cyclobutylpiperidin-4-yl)oxy)phenyl)-3-(2-(4-hydroxypiperidin-1-yl)ethyl)urea]: in series [1], the inhibition at 0.005 µM turned out to be 101% and the inhibition at 0.05 µM was 101%.

For the molecule `CC(C)N1CCN(CCNC(=O)Nc2ccc(OC3CCN(C4CCC4)CC3)cc2)CC1` [BIOS-A-11, 1-(4-((1-cyclobutylpiperidin-4-yl)oxy)phenyl)-3-(2-(4-isopropylpiperazin-1-yl)ethyl)urea], the inhibition at 10 µM in series [2] (setting [4]) was -1.22%. In series [2] (setting [5]), the inhibition at 10 µM is below 5%. Also, in series [1], the inhibition at 0.005 µM was 100% and the inhibition at 0.05 µM amounted to 100%.

For the molecule `O=C(NCCN1CCNCC1)Nc1ccc(OC2CCN(C3CCC3)CC2)cc1` [BIOS-A-14, 1-(4-((1-cyclobutylpiperidin-4-yl)oxy)phenyl)-3-(2-(piperazin-1-yl)ethyl)urea], in series [2] (setting [4]), the inhibition at 10 µM was -0.62%. For the same molecule, in series [1], the inhibition at 0.005 µM came out at 100% and the inhibition at 0.05 µM was 99.7%.

`CN1CCN(CCNC(=O)Nc2ccc(OC3CCN(C4CCC4)CC3)cc2)CC1` [BIOS-A-10, 1-(4-((1-cyclobutylpiperidin-4-yl)oxy)phenyl)-3-(2-(4-methylpiperazin-1-yl)ethyl)urea]: the inhibition at 10 µM in series [2] (setting [4]) is -2.92%. Besides, the inhibition at 10 µM in series [2] (setting [5]) is below 5%. Moreover, in series [1], the inhibition at 0.005 µM is 99.7% and the inhibition at 0.05 µM was determined as 101%.

Consider `C[C@@H]1CCCN1CCNC(=O)Nc1ccc(OC2CCN(C3CCC3)CC2)cc1` [BIOS-A-6, (R)-1-(4-((1-cyclobutylpiperidin-4-yl)oxy)phenyl)-3-(2-(2-methylpyrrolidin-1-yl)ethyl)urea], for which, in series [1], the inhibition at 0.005 µM worked out at 81.3% and the inhibition at 0.05 µM was found to be 101%.

With `CN1CCCN(CCNC(=O)Nc2ccc(OC3CCN(C4CCC4)CC3)cc2)CC1` [BIOS-A-13, 1-(4-((1-cyclobutylpiperidin-4-yl)oxy)phenyl)-3-(2-(4-methyl-1,4-diazepan-1-yl)ethyl)urea], in series [2] (setting [4]), the inhibition at 10 µM is -0.54%. Also, in series [1], the inhibition at 0.005 µM came to 101% and the inhibition at 0.05 µM was 101%.
